Measurements from patent US10426775B2, “Methods for treating Friedreich's ataxia with etravirine” (Fratagene Therapeutics srl, priority 2017, dated 2019).

System: frataxin precursor
Experiment: Western blot of frataxin in HEK293 Flp-In cells stably transfected with frataxin (HEK293-fxn)
Type: cell-based, human
Experimental: For the validation steps, etravirine (TMC125) was purchased from Selleckchem and was dissolved in DMSO at a stock concentration of 10 mM. HEK-293 Flp-In cells, stably overexpressing frataxin, were treated with the drug (or only DMSO) for 24 hours at final concentration of 10 μM. FRDA cells were treated with different concentration of etravirine. For all drug (and no drug) treatments, the final concentration of DMSO in the cell culture medium was 0.1%.
Total cell extracts were prepared in lysis buffer (50 mM Tris-HCl, pH 7.5, 150 mM NaCl, 1% Igepal CA-630, 5 mM EDTA, 5 mM EGTA) supplemented with complete protease inhibitor cocktail (Roche Diagnostics, Indianapolis, Ind., USA). […] The immunoreactive bands were detected by ECL (GE Healthcare, Chalfont St. Giles, UK) and imaged with a ChemiDoc XRS system (Bio-Rad). […] All values are expressed as means±1 S.E.M.
The identified candidate drugs were individually validated for their ability to promote frataxin accumulation in different cell types. […] Protein extracts from the cell lines were resolved on SDS-PAGE and analyzed by western blot with anti-frataxin antibody and anti-tubulin as a loading control. […]
HEK 293-fxn stably expressing frataxin (A), HEK 293 (B), or FRDA lymphoblast cell line GM16203 (C) were treated with 10 μM etravirine for the indicated time points. Protein extracts were resolved on SDS-PAGE and analyzed by western blot with anti-frataxin antibody and anti-tubulin as a loading control. […] Quantitative analysis of newly-synthesized FXN mRNA was performed by metabolic labeling of nascent RNA using the Click-iT Nascent RNA Capture Kit (Life Technologies), followed by biotin conjugation and isolation with streptavidin beads, according to provider instructions. Nascent frataxin transcripts levels were quantitated by real-time PCR relative to the expression of the control genes ACTB, GUSB and ATP5J. […] Relative levels of total frataxin mRNA were measured by real-time PCR and normalized on expression levels of three control genes ATP5J, GUSB and ACTB using the ΔΔCt method. […]

`Cc1cc(C#N)cc(C)c1Oc1nc(Nc2ccc(C#N)cc2)nc(N)c1Br` [etravirine] was tested, and the “increase in frataxin precursor levels (densitometric ratio frataxin precursor/tubulin)” value (HEK293-fxn, 10 μM of each candidate drug, 24 h) was “striking upregulation”, the “amount of frataxin precursor” value (HEK293-fxn, etravirine at 10 (μM), detectable after 4 hours, higher after 12 hours) was “rapid and robust increase” and the “frataxin accumulation compared with MG132 treatment” value (etravirine vs general proteasome inhibitor MG132, cell system not stated) was “strikingly stronger”.
